Where two headings read alike, the source gives them in different places.
Legend:
NRAS Q61K = NRAS Q61K (Homo sapiens, UniProt P01111+P62937, Q61K); experiment: Disruption of BRAF RBD interaction with Ras (FRET / MOA assay, with Cyclophilin A); format: biochemical; details: NRAS Q61K; read-out: NRAS Q61K FRET data IC50
Summary of the method: (§1)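 TR-FRET in 25 mM HEPES pH 7.3, 100 mM NaCl, 5 mM MgCl2, 0.1% BSA: 25 μM Cyclophilin A, 12.5 nM His6-Ras-GMPPNP, 50 nM GST-BRAF RBD with compound (10-point 3-fold series from 30 μM), 3 h at 25° C. Anti-His Eu/anti-GST APC added, 1.5 h more; IC50 from decreased FRET ratio versus DMSO.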

KRAS Q61H = KRAS Q61H (Homo sapiens, UniProt P01116+P62937, Q61H); experiment: as above; format: biochemical; details: KRAS Q61H; read-out: KRAS Q61H FRET data IC50
Chain of KRAS Q61H (P01116 1-169 isoform P01116-2 Q61H limits assumed): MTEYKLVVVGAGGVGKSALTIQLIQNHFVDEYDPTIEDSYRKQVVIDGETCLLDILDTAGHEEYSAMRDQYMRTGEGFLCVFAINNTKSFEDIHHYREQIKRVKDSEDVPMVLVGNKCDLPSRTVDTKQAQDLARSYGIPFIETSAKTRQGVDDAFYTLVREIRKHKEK
Chain of KRAS Q61H (P62937 whole entry): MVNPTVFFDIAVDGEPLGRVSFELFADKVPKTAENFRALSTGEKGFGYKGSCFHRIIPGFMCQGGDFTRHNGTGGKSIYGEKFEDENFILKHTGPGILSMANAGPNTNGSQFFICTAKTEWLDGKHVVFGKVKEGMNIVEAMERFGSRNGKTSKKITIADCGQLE
Summary of the method: as §1

NRAS WT = NRAS WT (Homo sapiens, UniProt P01111+P62937); experiment: as above; format: biochemical; details: NRAS WT; read-out: NRAS WT FRET data IC50
Chain of NRAS WT (P01111 whole entry): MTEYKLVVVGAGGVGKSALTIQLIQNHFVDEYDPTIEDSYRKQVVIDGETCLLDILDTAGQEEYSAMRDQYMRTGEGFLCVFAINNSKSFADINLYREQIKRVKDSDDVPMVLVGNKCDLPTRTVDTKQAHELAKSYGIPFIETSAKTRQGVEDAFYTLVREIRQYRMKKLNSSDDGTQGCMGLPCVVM
Chain of NRAS WT (P62937 whole entry): as the sequence (P62937 whole entry) above
Summary of the method: as §1

NRAS Q61R = NRAS Q61R (Homo sapiens, UniProt P01111+P62937, Q61R); experiment: as above; format: biochemical; details: NRAS Q61R; read-out: NRAS Q61R FRET data IC50
Chain of NRAS Q61R (P01111 whole entry Q61R): as the sequence (P01111 whole entry) above, with Q61R counted along it
Chain of NRAS Q61R (P62937 whole entry): as the sequence (P62937 whole entry) above
Summary of the method: as §1

KRAS G12D = KRAS G12D (Homo sapiens, UniProt P01116+P62937, G12D); experiment: as above; format: biochemical
Chain of KRAS G12D (P01116 1-169 isoform P01116-2 G12D limits assumed): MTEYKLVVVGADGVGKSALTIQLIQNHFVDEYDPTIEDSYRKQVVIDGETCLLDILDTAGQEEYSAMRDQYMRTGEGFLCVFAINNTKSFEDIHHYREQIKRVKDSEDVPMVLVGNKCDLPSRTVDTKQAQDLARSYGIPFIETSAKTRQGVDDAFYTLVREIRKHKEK
Chain of KRAS G12D (P62937 whole entry): as the sequence (P62937 whole entry) above
Summary of the method: (§2)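 TR-FRET readout: a drop in ratio relative to DMSO wells marks disruption of the K-Ras:BRAF RBD complex via compound-induced K-Ras–Cyclophilin A ternary complex. Dosing used ten 3-fold steps from 30 μM final, 3 h at 25 °C, then Eu-anti-His 10 nM plus APC-anti-GST 50 nM for another 1.5 h. Values are IC50s.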

KRAS G13C = KRAS G13C (Homo sapiens, UniProt P01116+P62937, G13C); experiment: as above; format: biochemical
Chain of KRAS G13C (P01116 1-169 isoform P01116-2 G13C): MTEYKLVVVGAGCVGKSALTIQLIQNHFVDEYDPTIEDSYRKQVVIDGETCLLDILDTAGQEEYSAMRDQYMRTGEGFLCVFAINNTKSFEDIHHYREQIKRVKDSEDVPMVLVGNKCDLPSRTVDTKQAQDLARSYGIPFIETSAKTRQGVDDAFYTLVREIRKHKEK
Chain of KRAS G13C (P62937 whole entry): as the sequence (P62937 whole entry) above
Summary of the method: as §2

KRAS G12V = KRAS G12V (Homo sapiens, UniProt P01116+P62937, G12V); experiment: as above; format: biochemical
Chain of KRAS G12V (P01116 1-169 isoform P01116-2 G12V limits assumed): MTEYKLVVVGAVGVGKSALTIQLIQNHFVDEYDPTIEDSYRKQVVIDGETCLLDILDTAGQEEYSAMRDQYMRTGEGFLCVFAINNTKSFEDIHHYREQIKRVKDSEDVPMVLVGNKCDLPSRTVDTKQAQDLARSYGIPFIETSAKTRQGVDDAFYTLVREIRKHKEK
Chain of KRAS G12V (P62937 whole entry): as the sequence (P62937 whole entry) above
Summary of the method: as §2

KRAS G12C = KRAS G12C (Homo sapiens, UniProt P01116+P62937, G12C); experiment: as above; format: biochemical
Chain of KRAS G12C (P01116 1-169 isoform P01116-2 G12C): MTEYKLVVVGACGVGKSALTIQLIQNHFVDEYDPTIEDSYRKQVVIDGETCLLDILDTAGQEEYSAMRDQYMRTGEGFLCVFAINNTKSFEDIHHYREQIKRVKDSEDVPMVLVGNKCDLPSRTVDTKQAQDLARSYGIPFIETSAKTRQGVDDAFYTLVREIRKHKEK
Chain of KRAS G12C (P62937 whole entry): as the sequence (P62937 whole entry) above
Summary of the method: as §2

KRAS G13D = KRAS G13D (Homo sapiens, UniProt P01116+P62937, G13D); experiment: as above; format: biochemical
Chain of KRAS G13D (P01116 1-169 isoform P01116-2 G13D limits assumed): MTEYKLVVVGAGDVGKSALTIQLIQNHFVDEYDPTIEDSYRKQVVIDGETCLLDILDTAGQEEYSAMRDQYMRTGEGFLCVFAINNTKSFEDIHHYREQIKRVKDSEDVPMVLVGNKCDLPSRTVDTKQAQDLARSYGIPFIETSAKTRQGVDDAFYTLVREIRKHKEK
Chain of KRAS G13D (P62937 whole entry): as the sequence (P62937 whole entry) above
Summary of the method: as §2

NRAS G12C = NRAS G12C (Homo sapiens, UniProt P01111+P62937, G12C); experiment: as above; format: biochemical
Chain of NRAS G12C (P01111 whole entry G12C): as the sequence (P01111 whole entry) above, with G12C counted along it
Chain of NRAS G12C (P62937 whole entry): as the sequence (P62937 whole entry) above

KRAS G12S = KRAS G12S (Homo sapiens, UniProt P01116+P62937, G12S); experiment: as above; format: biochemical
Chain of KRAS G12S (P01116 1-169 isoform P01116-2 G12S limits assumed): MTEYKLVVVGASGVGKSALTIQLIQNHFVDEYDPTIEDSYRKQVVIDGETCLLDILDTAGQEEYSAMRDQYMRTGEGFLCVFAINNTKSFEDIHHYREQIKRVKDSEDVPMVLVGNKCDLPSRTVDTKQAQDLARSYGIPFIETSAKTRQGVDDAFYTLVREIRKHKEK
Chain of KRAS G12S (P62937 whole entry): as the sequence (P62937 whole entry) above
Summary of the method: as §2

KRAS WT = KRAS WT (Homo sapiens, UniProt P01116+P62937); experiment: as above; format: biochemical
Chain of KRAS WT (P01116 1-169 isoform P01116-2 limits assumed): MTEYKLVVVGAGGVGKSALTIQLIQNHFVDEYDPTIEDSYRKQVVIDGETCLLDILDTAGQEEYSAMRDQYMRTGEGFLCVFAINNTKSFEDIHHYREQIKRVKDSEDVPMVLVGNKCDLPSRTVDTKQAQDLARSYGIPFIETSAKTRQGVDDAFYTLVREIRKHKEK
Chain of KRAS WT (P62937 whole entry): as the sequence (P62937 whole entry) above
Summary of the method: as §2

Capan-1 (K-Ras G12V) = experiment: CellTiter-Glo cell viability assay, 5-day treatment; format: cell-based; details: Homo sapiens, CAPAN-1, 120 h, 5-day treatment; read-out: Capan-1 Cell Viability assay data (K-Ras G12V, IC50)
Summary of the method: (§3)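 Five-day compound treatment of plated cells; luminescent read after ~30 min at RT. Percent-of-DMSO data fit to a four-parameter logistic model.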

NCI-H358 (K-Ras G12C) = experiment: as above; format: cell-based; details: Homo sapiens, NCI-H358, 120 h, 5-day treatment; read-out: H358 Cell Viability assay data (K-Ras G12C, IC50)
Summary of the method: as §3

[1] = read-out: KRAS G12D FRET data, IC50
[2] = read-out: KRAS G13C FRET data, IC50
[3] = KRAS G12V, read-out: KRAS G12V FRET data IC50
[4] = read-out: KRAS G12C FRET data, IC50
[5] = KRAS G13D, read-out: KRAS G13D FRET data IC50
[6] = NRAS G12C, read-out: NRAS G12C FRET data IC50
[7] = read-out: KRAS G12S FRET data, IC50
[8] = KRAS WT, read-out: KRAS WT FRET data IC50
[9] = KRAS G12V FRET data IC50, KRAS G12V
[10] = KRAS G13D FRET data IC50, KRAS G13D
[11] = NRAS G12C FRET data IC50, NRAS G12C
[12] = KRAS WT FRET data IC50, KRAS WT

Chain of NRAS Q61K (P01111 whole entry Q61K): as the sequence (P01111 whole entry) above, with Q61K counted along it
Chain of NRAS Q61K (P62937 whole entry): as the sequence (P62937 whole entry) above

IC50 (NRAS Q61K) | IC50 (KRAS Q61H) | IC50 (NRAS WT) | IC50 (NRAS Q61R) | IC50 (KRAS G12D; [1]) | IC50 (KRAS G13C; [2]) | IC50 (KRAS G12V; [3]) | IC50 (KRAS G12C; [4]) | IC50 (KRAS G13D; [5]) | IC50 (NRAS G12C; [6]) | IC50 (KRAS G12S; [7]) | IC50 (KRAS WT; [8]) | IC50 (NCI-H358 (K-Ras G12C)) | IC50 (KRAS G12D; KRAS G12D FRET data, IC50) | IC50 (KRAS G13C; KRAS G13C FRET data, IC50) | IC50 (KRAS G12V; [9]) | IC50 (KRAS G12C; KRAS G12C FRET data, IC50) | IC50 (KRAS G13D; [10]) | IC50 (NRAS G12C; [11]) | SMILES | IC50 (Capan-1 (K-Ras G12V)) | also measured
10 to 100 nM | 10 to 100 nM | 10 to 100 nM | 10 to 100 nM | 100 to 1000 nM | 100 to 1000 nM | 100 to 1000 nM | 10 to 100 nM | 100 to 1000 nM | 10 to 100 nM | 10 to 100 nM | 10 to 100 nM | 10 to 100 nM |  |  |  |  |  |  | CCn1c(-c2cccnc2[C@H](C)OC)c2c3cc(ccc31)-c1csc(n1)C[C@H](NC(=O)[C@H](C(C)C)N(C)C(=O)N1CCC3(CCN(C)CC3)C1)C(=O)N1CCC[C@H](N1)C(=O)OCC(C)(C)C2 (atropisomer, axis not shown) [Example A565] | 10 to 100 nM | 
10 to 100 nM | 10 to 100 nM | 100 to 1000 nM | 100 to 1000 nM | 100 to 1000 nM | 100 to 1000 nM | 100 to 1000 nM | 10 to 100 nM | 100 to 1000 nM | 10 to 100 nM | 100 to 1000 nM | 100 to 1000 nM | 10 to 100 nM |  |  |  |  |  |  | CCn1c(-c2cccnc2[C@H](C)OC)c2c3cc(ccc31)-c1csc(n1)C[C@H](NC(=O)[C@H](C(C)C)N(C)C(=O)N1C[C@H](N)[C@@H](F)C1)C(=O)N1CCC[C@H](N1)C(=O)OCC(C)(C)C2 (atropisomer, axis not shown) [Example A567] | 100 to 1000 nM | 
10 to 100 nM | 10 to 100 nM | 10 to 100 nM | 100 to 1000 nM |  |  |  |  |  |  |  |  | < 10 nM | 10 to 100 nM | 10 to 100 nM | 100 to 1000 nM | 10 to 100 nM | 10 to 100 nM | 10 to 100 nM | CCn1c(-c2cccnc2[C@H](C)OC)c2c3cc(ccc31)-c1csc(n1)C[C@H](NC(=O)[C@H](C(C)C)N(C)C(=O)N1CCC[C@H](CN(C)C)C1)C(=O)N1CCC[C@H](N1)C(=O)OCC(C)(C)C2 (atropisomer, axis not shown) [Example A573] | 10 to 100 nM | IC50 (KRAS G12S; KRAS G12S FRET data, IC50): 10 to 100 nM; IC50 (KRAS WT; [12]): 10 to 100 nM

More lines, now with the values behind:

SMILES | IC50 (NRAS Q61K) | IC50 (KRAS Q61H) | IC50 (NRAS WT) | IC50 (NRAS Q61R) | IC50 (KRAS G12D; [1]) | IC50 (KRAS G13C; [2]) | IC50 (KRAS G12V; [3]) | IC50 (KRAS G12C; [4]) | IC50 (KRAS G13D; [5]) | IC50 (NRAS G12C; [6]) | IC50 (KRAS G12S; [7]) | IC50 (KRAS WT; [8]) | IC50 (NCI-H358 (K-Ras G12C)) | IC50 (KRAS G12D; KRAS G12D FRET data, IC50) | IC50 (KRAS G13C; KRAS G13C FRET data, IC50) | IC50 (KRAS G12V; [9]) | IC50 (KRAS G12C; KRAS G12C FRET data, IC50) | IC50 (KRAS G13D; [10]) | IC50 (NRAS G12C; [11]) | IC50 (Capan-1 (K-Ras G12V)) | also measured
CCn1c(-c2cc(N3CCN(C)CC3)cnc2[C@H](C)OC)c2c3cc(ccc31)-c1cccc(c1)C[C@H](NC(=O)[C@H](C(C)C)N(C)C(=O)[C@@H]1OCC[C@@H]1c1ccccc1)C(=O)N1CCC[C@H](N1)C(=O)OCC(C)(C)C2 (atropisomer, axis not shown) [Example A562] | 100 to 1000 nM | 10 to 100 nM | 10 to 100 nM | 10 to 100 nM | 100 to 1000 nM | 10 to 100 nM | 10 to 100 nM | 10 to 100 nM | 100 to 1000 nM | 10 to 100 nM | 100 to 1000 nM | 10 to 100 nM | < 10 nM |  |  |  |  |  |  | < 10 nM | 
CCn1c(-c2cccnc2[C@H](C)OC)c2c3cc(ccc31)-c1csc(n1)C[C@H](NC(=O)[C@H](C(C)C)N(C)C(=O)N1CC[C@@H](N(C)C)C1)C(=O)N1CCC[C@H](N1)C(=O)OCC(C)(C)C2 (atropisomer, axis not shown) [Example A566] | 10 to 100 nM | 10 to 100 nM | 100 to 1000 nM | 100 to 1000 nM | 100 to 1000 nM | 100 to 1000 nM | 100 to 1000 nM | 100 to 1000 nM | 100 to 1000 nM | 100 to 1000 nM | 100 to 1000 nM | 100 to 1000 nM | 10 to 100 nM |  |  |  |  |  |  | 10 to 100 nM | 
CCn1c(-c2cccnc2[C@H](C)OC)c2c3cc(ccc31)-c1csc(n1)C[C@H](NC(=O)[C@H](C(C)C)N(C)C(=O)N1CCC(N(C)C)CC1)C(=O)N1CCC[C@H](N1)C(=O)OCC(C)(C)C2 (atropisomer, axis not shown) [Example A571] | 10 to 100 nM | 10 to 100 nM | 10 to 100 nM | 100 to 1000 nM |  |  |  |  |  |  |  |  | 10 to 100 nM | 100 to 1000 nM | 100 to 1000 nM | 100 to 1000 nM | 10 to 100 nM | 100 to 1000 nM | 10 to 100 nM | 10 to 100 nM | IC50 (KRAS G12S; KRAS G12S FRET data, IC50): 100 to 1000 nM; IC50 (KRAS WT; [12]): 10 to 100 nM

— patent US20230233569A1 (Revolution Medicines, Inc., priority 2020, published 2023)
